Three molecules from ChEMBL document CHEMBL3714726, “Substituted quinoxaline carboxylic acids for the inhibition of PASK” (2014) can be followed below.

The target in data set [1] is PAS domain-containing serine/threonine-protein kinase (Homo sapiens, UniProt Q96RG2). In words: Inhibition of human recombinant PASK using Ulight-peptide substrate incubated for 2 hrs by TR-FRET assay.
Data set [2] is described as follows: Half life in Sprague-Dawley rat at 1 mg/kg, iv after 0.083 to 24 hrs by LC-MS/MS method. Format: ADME, organism-based. To be noted: in vivo.

By IC50 is commonly meant the concentration that inhibits the measured activity by half. As usually defined, the half-life is the time needed for the level to fall by half in the phase considered. High values mean slow loss, low ones fast loss.

Chain of PAS domain-containing serine/threonine-protein kinase (Q96RG2 whole entry, the tested form may be a part): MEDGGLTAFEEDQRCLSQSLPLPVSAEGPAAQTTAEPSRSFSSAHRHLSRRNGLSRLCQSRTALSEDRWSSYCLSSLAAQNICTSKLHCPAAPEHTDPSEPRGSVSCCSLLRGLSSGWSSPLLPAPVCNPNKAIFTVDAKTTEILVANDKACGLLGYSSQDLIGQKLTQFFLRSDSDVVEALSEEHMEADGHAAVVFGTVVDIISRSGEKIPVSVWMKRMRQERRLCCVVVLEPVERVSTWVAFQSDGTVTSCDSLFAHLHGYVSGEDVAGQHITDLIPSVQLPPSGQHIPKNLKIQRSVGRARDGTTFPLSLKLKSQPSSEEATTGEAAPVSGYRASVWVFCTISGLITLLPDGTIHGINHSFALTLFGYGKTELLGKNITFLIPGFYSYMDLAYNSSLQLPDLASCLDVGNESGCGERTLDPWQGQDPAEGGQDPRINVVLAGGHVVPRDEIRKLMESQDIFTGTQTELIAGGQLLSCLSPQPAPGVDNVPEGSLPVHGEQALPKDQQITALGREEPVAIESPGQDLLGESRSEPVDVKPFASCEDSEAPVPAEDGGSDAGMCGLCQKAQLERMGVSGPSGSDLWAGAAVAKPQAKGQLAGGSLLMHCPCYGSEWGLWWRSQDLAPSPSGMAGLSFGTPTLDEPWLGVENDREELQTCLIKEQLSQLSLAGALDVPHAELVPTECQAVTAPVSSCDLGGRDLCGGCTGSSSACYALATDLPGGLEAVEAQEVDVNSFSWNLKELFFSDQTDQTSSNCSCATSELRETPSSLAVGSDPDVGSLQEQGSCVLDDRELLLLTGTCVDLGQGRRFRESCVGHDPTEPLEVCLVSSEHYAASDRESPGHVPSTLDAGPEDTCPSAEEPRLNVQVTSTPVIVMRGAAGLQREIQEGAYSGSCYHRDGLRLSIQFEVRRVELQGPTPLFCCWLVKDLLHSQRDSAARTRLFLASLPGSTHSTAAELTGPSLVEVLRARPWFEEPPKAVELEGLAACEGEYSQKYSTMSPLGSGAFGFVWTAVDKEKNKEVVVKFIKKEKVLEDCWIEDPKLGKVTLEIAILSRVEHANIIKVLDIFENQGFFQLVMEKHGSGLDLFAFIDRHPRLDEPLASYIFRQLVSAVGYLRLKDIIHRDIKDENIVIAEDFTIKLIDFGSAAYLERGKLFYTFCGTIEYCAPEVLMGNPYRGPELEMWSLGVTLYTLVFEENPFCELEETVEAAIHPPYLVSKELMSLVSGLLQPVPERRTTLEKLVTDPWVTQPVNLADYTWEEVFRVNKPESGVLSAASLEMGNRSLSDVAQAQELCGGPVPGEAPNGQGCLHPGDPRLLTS

As for `CC(C)N(C)c1nc2cc(C(=O)O)ccc2nc1-c1nc2ccccc2o1`, the IC50 in data set [1] is at most 10 µM. With `COc1ccc(-c2nc3ccc(C(=O)O)cc3nc2N(C)C(C)C)cn1`, the IC50 in data set [1] was at most 10 µM. Regarding `C[C@H]1COCCN1c1nc2cc(C(=O)O)ccc2nc1-c1ccc(F)cc1`, in data set [2], the half-life was 7.72 h.
